US20230310412A1, “USE OF CASPASE INHIBITOR FOR ALLEVIATING OR TREATING OSTEOARTHRITIS” (LG CHEM, LTD., priority 2020, published 2023)
Entries after “also recorded” stand apart in the source; their conditions may differ.

What was measured:
[1] = test system: beagle dog model of osteoarthritis; experiment: MRI evaluation of effect on joint structure in animal model of osteoarthritis; assay type: in vivo; conditions: MRI before vs 3 months after single intra-articular administration; FIG. 6
Method: In a beagle dog model of osteoarthritis induced by daily forced exercise after surgical anterior cruciate ligament transection with medial meniscectomy, the effect on joint structure was evaluated by taking an MRI (SIGNA Pioneer 3.0T MR, GE Healthcare Co., USA) of the joint before a single intra-articular administration and 3 months thereafter.

[2] = test system: IL-1β secretion in human peripheral blood mononuclear cells (PBMCs); experiment: Suppressive efficacy against LPS-induced IL-1β secretion in human-derived PBMC; assay type: cell-based; conditions: FIG. 2
Method: The inhibitory effects of nivocasan on inflammasome activation in human peripheral blood mononuclear cells (PBMCs) were evaluated by measuring LPS-induced IL-1β secretion. Freshly isolated PBMCs were plated at 2.5×10^5 cells/well (24-well plate) in RPMI-1640 media and treated with nivocasan or DMSO for 30 minutes, followed by incubation with 100 ng/ml LPS for 24 hours to induce inflammation. Levels of IL-1β in PBMC supernatants was measured by ELISA (R&D Systems Quantikine human IL-1β; detection limit: 7.8 pg/ml), and the results are represented in FIG. 2.

[3] = test system: beagle dog model of osteoarthritis; experiment: Histopathological evaluation of effect on joint in animal model of osteoarthritis; assay type: in vivo
Method: In a beagle dog model of osteoarthritis induced by daily forced exercise after surgical anterior cruciate ligament transection with medial meniscectomy, an autopsy was performed 3 months after a single intra-articular administration, and the joint was collected and fixed. The fixed tissue was subjected to conventional tissue processing such as demineralization, trimming, dehydration, paraffin embedding, sectioning and the like to prepare a specimen for histopathological examination, followed by hematoxylin eosin and safranin-o staining. An optical microscopy (Olympus BX53, Japan) was used to observe histopathological changes.
Histopathological evaluation was performed by comparing between groups with scoring as shown in Tables 3 to 8 according to the method proposed by Cook et al. (Cook et al., Osteoarthritis Cartilage. 2010; 18 Suppl 3:S66-S79), and the results are represented in FIG. 7.

[4] = test system: IL-1β secretion in THP-1 cells; experiment: Suppressive efficacy against LPS/nigericin-induced IL-1β secretion in THP-1 cells; assay type: cell-based, human; conditions: PMA-differentiated, LPS 100 ng/ml 24 h, compound 30 min, then 5 μM nigericin & 1 mM ATP 1 h, ELISA, FIG. 1
Method: To evaluate the inflammation blocking effects of nivocasan, IL-1β secretion was measured in THP-1 cells under conditions in which inflammation was induced by lipopolysaccharide (LPS)/nigericin treatment. The day before LPS treatment, THP-1 cells were plated at 2.5×10^5 cells/well (24-well plate) in RPMI-1640 media and treated with 0.5 μM phorbol 12-myristate 13-acetate (PMA) for macrophage differentiation during overnight culture. The media was then changed with Opti-MEM media and the cells were incubated with LPS 100 ng/ml (the first inflammation signal for […] up-regulation) for 24 hours. The cells were then washed with PBS twice and treated with nivocasan or DMSO for 30 minutes in Opti-MEM media, followed by incubation with 5 μM nigericin & 1 mM ATP for 1 hour to activate inflammasome (NLRP3 activation and IL-1β secretion). Secreted IL-1β was measured from cell media by using R&D Systems Quantikine human IL-1β (detection limit: 7.8 pg/ml), and the results are represented in FIG. 1.

[5] = test system: human chondrocytes; experiment: Protective effect on TNF-α-induced apoptosis in human-derived chondrocytes; assay type: cell-based; conditions: human normal chondrocytes, compound 30 min, then 10 ng/ml TNF-α and 1 μg/ml actinomycin D 18 h; Cell Death Detection ELISA; FIG. 3
Method: The protective effect of nivocasan on TNF-α-induced apoptosis was evaluated in human chondrocytes. Human normal chondrocytes were plated at 1×10^5 cells/well (collagen-coated 24-well plate) in chondrocyte media (Prigrow IV Medium, Applied Biological Materials Inc.) and incubated overnight. The cells were treated with nivocasan or DMSO for 30 minutes, followed by incubation with 10 ng/ml human recombinant TNF-α and 1 μg/ml actinomycin D for 18 hours to induce apoptosis. Apoptosis was measured by using Cell Death Detection ELISA kit, and the results are represented in FIG. 3.

[6] = test system: osteoarthritis-induced beagle dogs; experiment: Efficacy on improving walking ability (lameness score) in animal model of osteoarthritis; assay type: in vivo
Method: Beagle dogs were purchased from Orient Bio, and healthy animals were used for the experiment after a one-week quarantine cycle. After 1 week of recovery after surgical anterior cruciate ligament transection with medial meniscectomy, forced exercise for 30 minutes every day was carried out to induce osteoarthritis. The surgery for inducing osteoarthritis was performed under anesthesia after the animals were depilated on both knees. After broad disinfection of the incision site with povidone and 70% ethanol, the skin of the right knee was incised. By blunt dissection of the surrounding tissues, the articular surface of the distal end of femur was exposed. An instrument portal was created on the medial articular surface, and the meniscus and anterior cruciate ligament were excised. Wound closure was performed by the use of 4-0 nylon suture. […] The assessment about walking ability for evaluating the pain status and functional level of osteoarthritis animals was carried out according to the method proposed by Pashuck et al. (Troy D. Pashuck et al., J Orthop Res, 2016, 34(10): 1772-1779), and the lameness score as represented in Table 1 was recorded until the end of the experiment. […] The efficacy of nivocasan in an animal model of osteoarthritis was measured by evaluating the lameness score twice a week after a single intra-articular administration. […]

CC(C)[C@@]1(C(=O)N[C@H]2CC(=O)O[C@]2(O)CF)CC(c2nccc3ccccc23)=NO1 [nivocasan, (R)—N-((2S,3S)-2-(fluoromethyl)-2-hydroxy-5-oxotetrahydrofuran-3-yl]-5-isopropyl-3-(isoquinolin-1-yl)-4,5-dihydroisoxazole-5-carboxamide]
bone marrow lesion (MRI score) [1]: improvement
synovitis (MRI score) [1]: improvement
concentration showing maximum effect on LPS-induced IL-1β secretion ([2]; 100 ng/ml LPS 24 h): 0.3 µM
suppression of LPS-induced IL-1β secretion ([2]; compound 30 min, then 100 ng/ml LPS 24 h, ELISA): suppressed LPS-induced IL-1β secretion from PBMCs in a dose dependent manner
histopathology evaluation of the joints ([3]; autopsy 3 months after single intra-articular administration, FIG. 7): dose-related histopathological improvement
improving cartilage structure ([3]; single administration, summary of Examples 4 to 6): effective in improving cartilage structure
suppression of LPS/nigericin-induced IL-1β secretion [4]: suppressed LPS/nigericin-induced IL-1β secretion in THP-1 cells in a dose-dependent manner
prevention of TNF-α-induced apoptosis [5]: prevented TNF-α-induced apoptosis in human chondrocytes in a dose-dependent manner
improvement of walking ability (lameness score) ([6]; single intra-articular administration 0.1, 0.3, 1, 3 and 10 mg/knee, scored twice a week for 3 months, FIG. 4): showed the efficacy of the improvement of walking ability in a dose-dependent manner; also recorded: effective in improving walking ability

C[C@H](NC(=O)C(=O)Nc1ccccc1C(C)(C)C)C(=O)N[C@@H](CC(=O)O)C(=O)COc1c(F)c(F)cc(F)c1F [emricasan, N-(2-tert-butylphenyl)-2-oxoglycyl-N-[1(S)-(carboxymethyl)-2-oxo-3-(2,3,5,6-tetrafluorophenoxy)propyl]-L-alaninamide, reference compound]
bone marrow lesion (MRI score) [1]: improvement
synovitis (MRI score) [1]: improvement
improvement of walking ability (lameness score), compared with nivocasan ([6]; single intra-articular administration of 10 mg, FIG. 5): improvement of a walking ability similar to that of 10 mg of nivocasan
